Reference: patent publication US20250346582A1, “SPLEEN TYROSINE KINASE INHIBITORS AND METHODS OF USE THEREOF” (THE BOARD OF TRUSTEES OF THE UNIVERSITY OF ILLINOIS, priority 2022, published 2025)
Like-named read-outs stand apart in the source and are kept apart here.

Key:
Syk-cSH2 = target: T1, Syk-cSH2 (Homo sapiens, UniProt P43405); experiment: Fluorescence quenching vesicle binding assay, Syk-cSH2
T1 construct: polyhistidine (N); made in house; host or cells: Escherichia coli BL21 (DE3) pLysS
Experimental: (§1) The membrane-binding assay is based on fluorescence quenching of EGFP fused to a SH2 domain by a dark quencher containing lipid, dabsyl-PE, incorporated in lipid vesicles. The plate reader assay was performed using the Synergy™ Neo spectrofluorometer at 25° C. Nontreated black polystyrene 96-well plates (Corning) were used. Protein (10-50 nM) with the increasing concentration of vesicles with a given lipid composition in 20 mM Tris buffer, pH 7.4, containing 0.16 M NaCl was added to each row of wells and the EGFP fluorescence emission at 516 nm was measured with excitation set at 485 nm. Z′ factor for the assay system was determined as described^74. Imax and IC50 values of inhibitors were determined using the equation, I=Imax/(1+IC50/[I]) where I and [I] indicate % inhibition and inhibitor concentration, respectively. The average and standard deviation values were obtained from triplicate determinations.
(§2) We also optimized a recently developed fluorescence quenching-based lipid-binding assay^47 for high-throughput screening of these molecules for their inhibitory activity against the PIP3-SH2 interaction. Specifically, we expressed SH2 domains as EGFP-tagged proteins and directly quantified their membrane binding by monitoring the quenching of EGFP fluorescence emission intensity by a dark quencher-containing lipid, N-dimethylaminoazo-benzenesulfonyl-phosphatidylethanolamine (dabsyl-PE), incorporated in the vesicles. We then screened for compounds that inhibited binding of Syk-cSH2, BLNK-SH2, and PLCγ2-cSH2, respectively, to 1-palmitoyl-2-oleoyl-PC (POPC)/1-palmitoyl-2-oleoyl-PS (POPS)/PIP3/dabsyl-PE (67:20:3:10) vesicles while eliminating those that inhibit their non-specific binding to anionic POPC/POPS/dabsyl-PE (70:20:10) vesicles. The quality of the screening system was evaluated using 1% dimethylsulfoxide (DMSO) and 20 μM D-myo-inositol-1,3,4,5-tetraphosphate (IP4) as negative and positive controls, respectively. The clear separation of positive and negative control data and the average Z′-factor of 0.7 supported the robustness of our system for high-throughput screen of PIP3-SH2 interaction inhibitors.

PLCγ2-cSH2 = target: T2, PLCγ2-cSH2 (Homo sapiens, UniProt P16885); experiment: Fluorescence quenching vesicle binding assay, PLCγ2-cSH2; details: Table 2, PLCγ2-cSH2 binding to POPC/POPS/PIP3/dabsyl-PE vesicles; for Emax: read-out: Imax (%)
T2 construct: polyhistidine (N); made in house; host or cells: Escherichia coli BL21 (DE3) pLysS
T2 sequence (P16885 646-735 limits assumed): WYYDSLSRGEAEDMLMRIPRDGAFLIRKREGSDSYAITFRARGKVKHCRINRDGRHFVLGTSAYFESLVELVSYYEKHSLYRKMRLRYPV
Experimental: as §1, §2

BLNK-SH2 = target: T3, BLNK-SH2 (Homo sapiens, UniProt Q8WV28); experiment: Fluorescence quenching vesicle binding assay, BLNK-SH2; details: Table 2, BLNK-SH2 binding to POPC/POPS/PIP3/dabsyl-PE vesicles; for Emax: read-out: Imax (%)
T3 construct: All SH2 domain constructs were cloned into the pRSET-B vector; polyhistidine (N); made in house; host or cells: Escherichia coli BL21 (DE3) pLysS
T3 sequence (Q8WV28 346-453 limits assumed): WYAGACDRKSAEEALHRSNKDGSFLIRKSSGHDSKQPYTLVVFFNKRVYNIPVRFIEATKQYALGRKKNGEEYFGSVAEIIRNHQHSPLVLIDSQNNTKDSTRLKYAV
Experimental: as §1, §2

[1] = test system: BCR signaling axis (Syk-BLNK-PLCγ2); experiment: Western blot of BCR signaling axis in Raji B lymphocytes; assay type: cell-based; details: Raji B cells
Experimental: Cells were seeded at a density of 3.0×10^5 cells/well prior to incubation with inhibitors. Cells were incubated with 1-5 μM of Syk inhibitors overnight and stimulated with different antibodies: IgG2 for AML cells, IgM for Raji B cells, and OKT3 (Biolegend) for Jurkat cells. The cells were lysed in NP40 lysis buffer (50 mM Tris, pH 7.5, 150 mM NaCl, 1 mM EDTA, 1% NP40, 10% glycerol, 10 mM NaF, 10 mM Na3VO4, and the protease inhibitor cocktail) at 4° C. and the cell debris was removed by centrifugation. Samples were analyzed by SDS-PAGE. Proteins were separated and transferred to Immobilon-P polyvinylidene difluoride membrane (Millipore Sigma). The membrane was blocked with 5% bovine serum albumin for 1 h and incubated overnight at 4° C. with various antibodies (1:1000 dilution for all antibodies). After the unbound antibodies were removed by washing with 0.1% Tris buffer saline with 0.1% Tween20, the membranes were incubated with the horseradish peroxidase secondary antibody (1:5000 dilution) for 1 h at room temperature. The membranes were washed three more times with 0.1% Tris buffer saline with 0.1% Tween20 to remove the unbound horseradish peroxidase secondary antibody before imaging. The chemiluminescence intensity of protein bands in the gel was analyzed and documented by the Azure 500Q Imaging System.

[2] = Table 3, efficacy determined by the vesicle binding assay
[3] = Table 3, efficacy determined by the vesicle binding assay, read-out: IC50
[4] = Table 2, Syk-cSH2 binding to POPC/POPS/PIP3/dabsyl-PE vesicles

| Compound | Imax (%) (Syk-cSH2; [2]) | IC50 (Syk-cSH2; [3]) [µM] | other results |
| --- | --- | --- | --- |
| CCOP(=O)(OCC)C(=[N+]=[N-])C(Nc1ccccn1)c1ccc(C)cc1 (stereo not shown) [WC-75] | Imax (%) = 12 |  | IC50 (Syk-cSH2): 7 µM |
| [N-]=[N+]=C(C(=O)OC1CCCC1)C(Nc1ncccn1)c1ccc(C(F)(F)F)cc1 (stereo not shown) [WC-120] | Imax (%) = 20 | 4 |  |
| CC(C)(C)OC(=O)C(=[N+]=[N-])C(Nc1ccccn1)c1ccc(Br)cc1 (stereo not shown) [WC-50] | Imax (%) = 10 | 4.5 |  |
| Cc1ccc(C(Nc2cnccn2)C(=[N+]=[N-])C(=O)OC2CCCCC2)cc1 (stereo not shown) [WC-73] | Imax (%) ≤ 10 | 8 |  |
| Cc1ccc(C(Nc2ncccn2)C(=[N+]=[N-])C(=O)OC(C)(C)C)cc1 (stereo not shown) [WC-56] | Imax (%) ≤ 10 | 2 |  |
| [N-]=[N+]=C(C(=O)OC1CCCCC1)C(C=Cc1ccccc1)Nc1ncccn1 (stereo not shown) [WC-132] | Imax (%) = 15 | 5 |  |
| [N-]=[N+]=C(C(=O)OC1CCCCC1)C(Nc1ncccn1)c1ccc(O)cc1 (stereo not shown) [WC = 42] | Imax (%) = 12 | 4 |  |
| [N-]=[N+]=C(C(=O)OC1CCCCC1)C(Nc1ccccn1)c1ccc(O)c(Br)c1 (stereo not shown) [WC-52] | Imax (%) = 12 | 3.5 |  |
| Cc1ccc(C(Nc2ncc(C)s2)C(=[N+]=[N-])C(=O)OC2CCCCC2)cc1 (stereo not shown) [WC-92] | Imax (%) = 15 | 10 |  |
| [N-]=[N+]=C(C(=O)OC1CCCCC1)C(Nc1ncccn1)c1ccncc1 (stereo not shown) [WC-130] | Imax (%) = 25 | 2 |  |
| [N-]=[N+]=C(C(=O)OC1CCCCC1)C(Nc1ncccn1)c1c(F)c(F)c(F)c(F)c1F (stereo not shown) [WC-70] | Imax (%) ≤ 10 | 2.5 |  |
| Cc1ccc(C(CC(=O)OC2CCCCC2)Nc2ncccn2)cc1 (stereo not shown) [WC-79] | Imax (%) ≤ 10 | 10 |  |
| OCCc1c(Cl)cncc1I [VG594] |  |  | Emax (PLCγ2-cSH2): < 10%; IC50 (BLNK-SH2): 0.4 ± 0.03 µM; Emax (BLNK-SH2): 40 to 50%; effect on phosphorylation of BCR signaling proteins (Syk, BLNK, PLCγ2) [1]: blocked the phosphorylation of BLNK and PLCγ2 without a significant effect on Syk phosphorylation; Imax (%) (Syk-cSH2; [4]): <10% |
| COc1cc(C(Nc2ncccn2)C(=[N+]=[N-])C(=O)OC(C)(C)C)cc(OC)c1OC (stereo not shown) [WC-59] | Imax (%) ≤ 10 | 4 |  |
| COc1ccc(C(Nc2ncccn2)C(=[N+]=[N-])C(=O)OC2CCCCC2)cc1 (stereo not shown) [WC-30] | Imax (%) = 10 | 3.8 |  |
| Cc1ccc(C(Nc2ncccn2)C(=[N+]=[N-])C(=O)OC2CCCC2)cc1 (stereo not shown) [WC-100] | Imax (%) = 18 | 2 |  |
| [N-]=[N+]=C(C(=O)OC1CCCCC1)C(Nc1ncccn1)c1ccccc1 (stereo not shown) [WC-46] | Imax (%) = 10 | 5 |  |
| Cc1ccc(C(Nc2cc(C)ccn2)C(=[N+]=[N-])C(=O)OC2CCCCC2)cc1 (stereo not shown) [WC-95] | Imax (%) ≤ 10 | 5 |  |
| Cc1ccc(C(Nc2ncccn2)C(=[N+]=[N-])C(=O)ON2CCC(C)CC2)cc1 (stereo not shown) [WC-105] | Imax (%) = 15 | 4 |  |

| Compound | Imax (%) (Syk-cSH2; [2]) | IC50 (Syk-cSH2; [3]) [µM] | other results |
| --- | --- | --- | --- |
| CCOC(=O)NC(C(=O)OCC)c1cccc(Cl)n1 (stereo not shown) [VG370] |  |  | IC50 (PLCγ2-cSH2): 0.68 ± 0.05 µM; Emax (PLCγ2-cSH2): 40 to 50%; Emax (BLNK-SH2): < 20%; effect on phosphorylation of BCR signaling proteins (Syk, BLNK, PLCγ2) [1]: selectively suppressed phosphorylation of PLCγ2; Imax (%) (Syk-cSH2; [4]): <10% |
| CCOC(=O)C(=[N+]=[N-])C(Nc1ncccn1)c1ccc(O)cc1 (stereo not shown) [WC-115] | Imax (%) = 20 | 2 |  |
| CN(C)c1ccc(C(Nc2ncccn2)C(=[N+]=[N-])C(=O)OC2CCCCC2)cc1 (stereo not shown) [WC-34] | Imax (%) = 10 | 2.8 |  |
| CCOP(=O)(/C=C(\Nc1ccccn1)c1ccc(C)cc1)OCC [WC-85] | Imax (%) ≤ 10 |  | IC50 (Syk-cSH2): 12 µM |
| [N-]=[N+]=C(C(=O)OC1CCCC1)C(Nc1ccccn1)c1ccccc1 (stereo not shown) [WC-118] | Imax (%) = 15 | 4 |  |
| Cc1ccc(C(Nc2ncccn2)C(=[N+]=[N-])C(=O)ON2CCOCC2)cc1 (stereo not shown) [WC-108] | Imax (%) = 20 | 2 |  |
| Cc1ccc(C(Nc2ncccn2)C(=[N+]=[N-])C(=O)ON2CCN(C)CC2)cc1 (stereo not shown) [WC-109] | Imax (%) = 25 | 2 |  |
| [N-]=[N+]=C(C(=O)OC1CCCCC1)C(Nc1ncccn1)c1ccc(Br)cc1 (stereo not shown) [WC-68] | Imax (%) ≤ 10 | 4.5 |  |
| CCOC(=O)C(=[N+]=[N-])C(Nc1ccccn1)c1ccc(O)cc1 (stereo not shown) [WC-111] | Imax (%) ≤ 10 | 7 |  |
| CCOC(=O)/C=C(\NS(=O)(=O)c1ccccc1)c1ccc(C)cc1 [WC-90] | Imax (%) ≤ 10 | 20 |  |
| CCOC(=O)C(=[N+]=[N-])C(Nc1ccccn1)c1cccnc1 (stereo not shown) [WC-128] | Imax (%) = 18 | 3.5 |  |
| CCOC(=O)C(=[N+]=[N-])C(Nc1ccccn1)c1ccc(C(F)(F)F)cc1 (stereo not shown) [WC-121] | Imax (%) ≤ 10 | 4.8 |  |
| [N-]=[N+]=C(C(=O)OC1CCCCC1)C(Nc1ncccn1)c1cccs1 (stereo not shown) [WC-37] | Imax (%) = 15 | 2.8 |  |
| COc1cc(OC)cc(C(Nc2ncccn2)C(=[N+]=[N-])C(=O)OC2CCCCC2)c1 (stereo not shown) [WC-45] | Imax (%) = 12 | 3.6 |  |
| CCOC(=O)C(=[N+]=[N-])C(Nc1ccccn1)c1ccccc1 (stereo not shown) [WC-110] | Imax (%) ≤ 10 | 5 |  |
| Cc1ccc(/C(=C/C(=O)OC2CCCCC2)Nc2cnccn2)cc1 [WC-80] | Imax (%) = > 10 | 15 |  |
| [N-]=[N+]=C(C(=O)OC1CCCCC1)C(Nc1ncccn1)c1ccc(F)cc1 (stereo not shown) [WC-32] | Imax (%) = 10 | 5 |  |
| [N-]=[N+]=C(C(=O)OC1CCCCC1)C(Nc1ccccn1)c1ccc(Br)cc1 (stereo not shown) [WC-62] | Imax (%) ≤ 10 | 5 |  |
| [N-]=[N+]=C(C(=O)OC1CCCCC1)C(Nc1cnccn1)c1cccnc1 (stereo not shown) [WC-125] | Imax (%) = 20 | 1.5 |  |
